Values after ≈ are worked out from the molar mass of the structure shown.
Each compound was assayed on C. albicans (assay: Minimum Inhibitory Concentration (MIC), CLSI M27-A2). Conditions: Candida albicans, 48 h, about 50% growth reduction, approximately 48 h at 35 °C, read-out: Candida MIC.
Type: cell-based
Method: A. Minimum Inhibitory Concentration (MIC) Compounds were assessed for their ability to inhibit the growth of common strains of fungus, C. albicans using a standardized procedure (CLSI M27-A2). Stock solutions of the test compounds and standards were prepared in DMSO at 1,600 μg/mL (C. albicans). Eleven, serial, one-half dilutions of compounds were prepared in 96-well plates in RPMI+MOPS. The assay concentration ranges were 8-0.001 μg/mL (C. albicans). Cell suspensions of C. albicans were prepared and added to each well at concentrations of approximately 3.7×10^3 colony-forming-units per milliliter (cfu/mL). All testing was in duplicate. The inoculated plates were incubated for approximately 48 h at 35±1° C. At the completion of incubation the wells of each plate were evaluated visually for the presence of fungal growth. […] For QC purposes C. krusei isolate ATCC 6258 (4.0×10^3 cfu/mL) was included in the VOR assay.
With `OC(Cn1cncn1)(Cn1cncn1)c1ccc(F)cc1F` [Fluconazole, reference compound] the MIC was 0.5 µg/mL (≈ 1.63 µM). Work on `C[C@@H](c1ncncc1F)[C@](O)(Cn1cncn1)c1ccc(F)cc1F` [Voriconazole, reference compound] yielded an MIC of 0.016 µg/mL (≈ 0.0458 µM).

Same assay, conditions: Candida albicans, rating scale, read-out: Candida MIC Rating
For `OC(Cn1cnnn1)(c1ccc(F)cc1F)C(F)(F)c1ccc(-c2cccc(C(F)(F)F)c2)cn1` (stereo not drawn) [Example 31, 2-(2,4-Difluorophenyl)-1,1-difluoro-3-(1H-tetrazol-1-yl)-1-(5-(3-(trifluoromethyl)phenyl)pyridin-2-yl)propan-2-ol], the MIC was less than 0.5 µg/mL. `O=[N+]([O-])c1ccc(-c2ccc(C(F)(F)C(O)(Cn3cnnn3)c3ccc(F)cc3F)nc2)cc1` (stereo not drawn) [Example 32, 2-(2,4-Difluorophenyl)-1,1-difluoro-1-(5-(4-nitrophenyl)pyridin-2-yl)-3-(1H-tetrazol-1-yl)propan-2-ol] gave an MIC of less than 0.5 µg/mL. For `O=C(c1ccc(-c2ccc(C(F)(F)C(O)(Cn3cnnn3)c3ccc(F)cc3F)nc2)cc1)C(F)(F)F` (stereo not drawn) [Example 33, 1-(4-(6-(2-(2,4-Difluorophenyl)-1,1-difluoro-2-hydroxy-3-(1H-tetrazol-1-yl)propyl)pyridin-3-yl)phenyl)-2,2,2-trifluoroethanone], the MIC was less than 0.5 µg/mL. Compound `OC(Cn1cnnn1)(c1ccc(Cl)cc1F)C(F)(F)c1ccc(-c2ccc(OC(F)(F)F)cc2)cn1` (stereo not drawn) [Example 34, 2-(4-Chloro-2-fluorophenyl)-1,1-difluoro-3-(1H-tetrazol-1-yl)-1-(5-(4-(trifluoromethoxy)phenyl)pyridin-2-yl)propan-2-ol] has an MIC of less than 0.5 µg/mL. With `OC(Cn1cnnn1)(c1ccc(F)cc1F)C(F)(F)c1ccc(-c2ccccc2)cn1` (stereo not drawn) [Example 35, 2-(2,4-Difluorophenyl)-1,1-difluoro-1-(5-phenylpyridin-2-yl)-3-(1H-tetrazol-1-yl)propan-2-ol] the MIC was less than 0.5 µg/mL. Compound `OC(Cn1cnnn1)(c1ccc(F)cc1F)C(F)(F)c1ccc(-c2ccc(N3CCOCC3)cc2)cn1` (stereo not drawn) [Example 36, 2-(2,4-Difluorophenyl)-1,1-difluoro-1-(5-(4-morpholinophenyl)pyridin-2-yl)-3-(1H-tetrazol-1-yl)propan-2-ol] has an MIC of less than 0.5 µg/mL. Compound `O=C(Nc1ccc(-c2ccc(C(F)(F)C(O)(Cn3cnnn3)c3ccc(F)cc3F)nc2)cc1)C(F)(F)F` (stereo not drawn) [Example 37, N-(4-(6-(2-(2,4-Difluorophenyl)-1,1-difluoro-2-hydroxy-3-(1H-tetrazol-1-yl)propyl)pyridin-3-yl)phenyl)-2,2,2-trifluoroacetamide] has an MIC of less than 0.5 µg/mL. Compound `OC(Cn1cnnn1)(c1ccc(F)cc1F)C(F)(F)c1ccc(-c2ccc(OC(F)F)cc2)cn1` (stereo not drawn) [Example 38, 1-(5-(4-(Difluoromethoxy)phenyl)pyridin-2-yl)-2-(2,4-difluorophenyl)-1,1-difluoro-3-(1H-tetrazol-1-yl)propan-2-ol] has an MIC of less than 0.5 µg/mL. `OC(Cn1cnnn1)(c1ccc(F)cc1F)C(F)(F)c1ccc(-c2ccc(SC(F)F)cc2)cn1` (stereo not drawn) [Example 40] showed an MIC of less than 0.5 µg/mL. In the case of `OC(Cn1cnnn1)(c1ccc(F)cc1F)C(F)(F)c1ccc(-c2ccc(CC(F)(F)F)cc2)cn1` (stereo not drawn) [Example 41, 2-(2,4-Difluorophenyl)-1,1-difluoro-3-(1H-tetrazol-1-yl)-1-(5-(4-(2,2,2-trifluoroethyl)phenyl)pyridin-2-yl)propan-2-ol], the MIC is reported as less than 0.5 µg/mL. With `CNC(=O)c1ccc(-c2ccc(C(F)(F)C(O)(Cn3cnnn3)c3ccc(F)cc3F)nc2)cc1` (stereo not drawn) [Example 42, 4-(6-(2-(2,4-Difluorophenyl)-1,1-difluoro-2-hydroxy-3-(1H-tetrazol-1-yl)propyl)pyridin-3-yl)-N-methylbenzamide] the MIC was less than 0.5 µg/mL. Compound `CCOC(=O)C(F)(F)Oc1ccc(-c2ccc(C(F)(F)C(O)(Cn3cnnn3)c3ccc(F)cc3F)nc2)cc1` (stereo not drawn) [Example 43, Ethyl 2-(4-(6-(2-(2,4-difluorophenyl)-1,1-difluoro-2-hydroxy-3-(1H-tetrazol-1-yl)propyl)pyridin-3-yl)phenoxy)-2,2-difluoroacetate] has an MIC of less than 0.5 µg/mL. `OC(Cn1cnnn1)(c1ccc(F)cc1F)C(F)(F)c1ccc(-c2ccc(OCCC(F)(F)F)cc2)cn1` (stereo not drawn) [Example 44, 2-(2,4-Difluorophenyl)-1,1-difluoro-3-(1H-tetrazol-1-yl)-1-(5-(4-(3,3,3-trifluoropropoxy)phenyl)pyridin-2-yl)propan-2-ol] gave an MIC of less than 0.5 µg/mL. For `OC(Cn1cnnn1)(c1ccc(F)cc1F)C(F)(F)c1ccc(-c2ccc(SCC(F)(F)F)cc2)cn1` (stereo not drawn) [Example 45, 2-(2,4-Difluorophenyl)-1,1-difluoro-3-(1H-tetrazol-1-yl)-1-(5-(4-((2,2,2-trifluoroethyl)thio)phenyl)pyridin-2-yl)propan-2-ol], the MIC was less than 0.5 µg/mL. With `CC(F)(c1ccc(-c2ccc(OC(F)(F)F)cc2)cn1)C(O)(Cn1cnnn1)c1ccc(F)cc1F` (stereo not drawn) [Example 46, 2-(2,4-Difluorophenyl)-3-fluoro-1-(1H-tetrazol-1-yl)-3-(5-(4-(trifluoromethoxy)phenyl)-pyridin-2-yl)butan-2-ol] the MIC was 0.5 to 1.5 µg/mL (≈ 0.982 to 2.94 µM). In the case of `CC(F)(c1ccc(-c2ccc(F)cc2)cn1)C(O)(Cn1ncnn1)c1ccc(F)cc1F` (stereo not drawn) [Example 48, 2-(2,4-Difluorophenyl)-3-fluoro-3-(5-(4-fluorophenyl)pyridin-2-yl)-1-(2H-tetrazol-2-yl)butan-2-ol], the MIC is reported as 1.5 to 4 µg/mL (≈ 3.38 to 9.02 µM).

Same assay, conditions: rating scale
In the case of `OC(Cn1cnnn1)(c1ccc(F)cc1F)C(F)(F)c1ccc(-c2ccc(OCC(F)(F)F)cc2)cn1` (stereo not drawn) [Example 39, 2-(2,4-Difluorophenyl)-1,1-difluoro-3-(1H-tetrazol-1-yl)-1-(5-(4-(2,2,2-trifluoroethoxy)phenyl)pyridin-2-yl)propan-2-ol], the “Candida MIC Rating” value is reported as “C (>1.5-4)”. With `CC(F)(c1ccc(-c2ccc(OC(F)(F)F)cc2)cn1)C(O)(Cn1cnnn1)c1ccc(F)cc1F` (stereo not drawn) [Example 47, 2-(2,4-Difluorophenyl)-3-fluoro-1-(1H-tetrazol-1-yl)-3-(5-(4-(trifluoromethoxy)phenyl)-pyridin-2-yl)butan-2-ol] the “Candida MIC Rating” value was “A (≤0.5)”. In the case of `CC(F)(c1ccc(-c2ccc(F)cc2)cn1)C(O)(Cn1cnnn1)c1ccc(F)cc1F` (stereo not drawn) [Example 51, 2-(2,4-Difluorophenyl)-3-fluoro-3-(5-(4-fluorophenyl)pyridin-2-yl)-1-(1H-tetrazol-1-yl)butan-2-ol], the “Candida MIC Rating” value is reported as “A (≤0.5)”. With `CC(F)(c1ccc(-c2ccc(C(F)(F)F)cc2)cn1)C(O)(Cn1cnnn1)c1ccc(F)cc1F` (stereo not drawn) [Example 52, 2-(2,4-Difluorophenyl)-3-fluoro-1-(1H-tetrazol-1-yl)-3-(5-(4-(trifluoromethyl)phenyl)pyridin-2-yl)butan-2-ol] the “Candida MIC Rating” value was “C (>1.5-4)”. `CC(F)(c1ccc(-c2ccc(C(F)(F)F)cc2)cn1)C(O)(Cn1cnnn1)c1ccc(F)cc1F` (stereo not drawn) [Example 53, 2-(2,4-Difluorophenyl)-3-fluoro-1-(1H-tetrazol-1-yl)-3-(5-(4-(trifluoromethyl)phenyl)pyridin-2-yl)butan-2-ol] was tested, and the “Candida MIC Rating” value was “B (>0.5-1.5)”. For `CC(F)(c1ccc(-c2ccc(Cl)cc2)cn1)C(O)(Cn1cnnn1)c1ccc(F)cc1F` (stereo not drawn) [Example 54, 3-(5-(4-Chlorophenyl)pyridin-2-yl)-2-(2,4-difluorophenyl)-3-fluoro-1-(1H-tetrazol-1-yl)butan-2-ol], the “Candida MIC Rating” value was “C (>1.5-4)”. With `CC(F)(c1ccc(-c2ccc(Cl)cc2)cn1)C(O)(Cn1cnnn1)c1ccc(F)cc1F` (stereo not drawn) [Example 55, 3-(5-(4-Chlorophenyl)pyridin-2-yl)-2-(2,4-difluorophenyl)-3-fluoro-1-(1H-tetrazol-1-yl)butan-2-ol] the “Candida MIC Rating” value was “A (≤0.5)”. With `CC(F)(c1ccc(-c2ccc(OCC(F)(F)F)cc2)cn1)C(O)(Cn1cnnn1)c1ccc(F)cc1F` (stereo not drawn) [Example 56, 2-(2,4-Difluorophenyl)-3-fluoro-1-(1H-tetrazol-1-yl)-3-(5-(4-(2,2,2-trifluoroethoxy)phenyl)pyridin-2-yl)butan-2-ol] the “Candida MIC Rating” value was “C (>1.5-4)”. With `CC(F)(c1ccc(-c2ccc(OCC(F)(F)F)cc2)cn1)C(O)(Cn1cnnn1)c1ccc(F)cc1F` (stereo not drawn) [Example 57, 2-(2,4-Difluorophenyl)-3-fluoro-1-(1H-tetrazol-1-yl)-3-(5-(4-(2,2,2-trifluoroethoxy)phenyl)pyridin-2-yl)butan-2-ol] the “Candida MIC Rating” value was “A (≤0.5)”.
